In PubChem BioAssay (NCI):
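Interpolation was linear, between the two tested concentrations surrounding the appropriate level; five concentrations were tested over 48 hours in 96-well plates. Abbreviation: GI50, concentration required for 50% inhibition of growth. TGI is the concentration that stops growth completely.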

Legend:
Test in all cases: growth of human tumour cells (NCI), 48 h
786-0 renal = system: 786-0 renal
A498 renal = system: A498 renal
A549 NSCLC = system: A549 NSCLC
ACHN renal = system: ACHN renal
BT-549 breast = system: BT-549 breast
CAKI-1 renal = system: CAKI-1 renal
CCRF-CEM leukemia = system: CCRF-CEM leukemia
COLO 205 colon = system: COLO 205 colon
DU-145 prostate = system: DU-145 prostate
EKVX NSCLC = system: EKVX NSCLC
HCC-2998 colon = system: HCC-2998 colon
HCT-116 colon = system: HCT-116 colon
HCT-15 colon = system: HCT-15 colon
HL-60(TB) leukemia = system: HL-60(TB) leukemia
HOP-62 NSCLC = system: HOP-62 NSCLC
HOP-92 NSCLC = system: HOP-92 NSCLC
HS 578T breast = system: HS 578T breast
HT29 colon = system: HT29 colon
IGROV1 ovarian = system: IGROV1 ovarian
K-562 leukemia = system: K-562 leukemia
KM12 colon = system: KM12 colon
LOX IMVI melanoma = system: LOX IMVI melanoma
M14 melanoma = system: M14 melanoma
MALME-3M melanoma = system: MALME-3M melanoma
MCF7 breast = system: MCF7 breast
MDA-MB-231 breast = system: MDA-MB-231 breast
MDA-MB-435 = system: MDA-MB-435
MDA-MB-468 breast = system: MDA-MB-468 breast
MOLT-4 leukemia = system: MOLT-4 leukemia
NCI-H226 lung = system: NCI-H226 lung
NCI-H23 lung = system: NCI-H23 lung
NCI-H460 lung = system: NCI-H460 lung
NCI-H522 lung = system: NCI-H522 lung
NCI/ADR-RES ovarian = system: NCI/ADR-RES ovarian
OVCAR-3 ovarian = system: OVCAR-3 ovarian
OVCAR-4 ovarian = system: OVCAR-4 ovarian
OVCAR-5 ovarian = system: OVCAR-5 ovarian
OVCAR-8 ovarian = system: OVCAR-8 ovarian
PC-3 prostate = system: PC-3 prostate
RPMI-8226 leukemia = system: RPMI-8226 leukemia
RXF 393 renal = system: RXF 393 renal
SF-268 CNS = system: SF-268 CNS
SF-295 CNS = system: SF-295 CNS
SF-539 CNS = system: SF-539 CNS
SK-MEL-2 melanoma = system: SK-MEL-2 melanoma
SK-MEL-28 melanoma = system: SK-MEL-28 melanoma
SK-MEL-5 melanoma = system: SK-MEL-5 melanoma
SK-OV-3 ovarian = system: SK-OV-3 ovarian
SN12C renal = system: SN12C renal
SNB-19 CNS = system: SNB-19 CNS
SNB-75 CNS = system: SNB-75 CNS
SR leukemia = system: SR leukemia
SW-620 colon = system: SW-620 colon
T-47D breast = system: T-47D breast
TK-10 renal = system: TK-10 renal
U251 CNS = system: U251 CNS
UACC-257 melanoma = system: UACC-257 melanoma
UACC-62 melanoma = system: UACC-62 melanoma
UO-31 renal = system: UO-31 renal

Q: How did the GI50 (786-0 renal) turn out when `COc1cc(Cn2c(C(F)(F)F)cc3c(Cl)ncnc32)ccn1` was run?
A: 10.6 µM

Q: What about the TGI (786-0 renal) of the same compound?
A: 25.9 µM

Q: What about the GI50 (A498 renal) of the same compound?
A: 16 µM

Q: And the TGI (A498 renal)?
A: 30.8 µM

Q: What about the GI50 (A549 NSCLC) of the same compound?
A: 16.4 µM

Q: What about the TGI (A549 NSCLC) of the same compound?
A: 38.4 µM

Q: What about the GI50 (ACHN renal) of the same compound?
A: 14.4 µM

Q: What about the TGI (ACHN renal) of the same compound?
A: 28.8 µM

Q: And the GI50 (BT-549 breast)?
A: 1.63 µM

Q: And the TGI (BT-549 breast)?
A: 3.16 µM

Q: What about the GI50 (CAKI-1 renal) of the same compound?
A: 7.32 µM

Q: And the TGI (CAKI-1 renal)?
A: 20.6 µM

Q: What about the GI50 (CCRF-CEM leukemia) of the same compound?
A: 3.14 µM

Q: What about the TGI (CCRF-CEM leukemia) of the same compound?
A: 18.6 µM

Q: What about the GI50 (COLO 205 colon) of the same compound?
A: 15.3 µM

Q: And the TGI (COLO 205 colon)?
A: 46.3 µM

Q: What about the GI50 (DU-145 prostate) of the same compound?
A: 1.76 µM

Q: And the TGI (DU-145 prostate)?
A: 3.22 µM

Q: What about the GI50 (EKVX NSCLC) of the same compound?
A: 7.95 µM

Q: And the TGI (EKVX NSCLC)?
A: 23.9 µM

Q: And the GI50 (HCC-2998 colon)?
A: 1.78 µM

Q: What about the TGI (HCC-2998 colon) of the same compound?
A: 3.27 µM

Q: And the GI50 (HCT-116 colon)?
A: 1.74 µM

Q: What about the TGI (HCT-116 colon) of the same compound?
A: 4.3 µM

Q: And the GI50 (HCT-15 colon)?
A: 3.09 µM

Q: What about the GI50 (HL-60(TB) leukemia) of the same compound?
A: 2.14 µM

Q: And the TGI (HL-60(TB) leukemia)?
A: 7.28 µM

Q: And the GI50 (HOP-62 NSCLC)?
A: 14.3 µM

Q: What about the TGI (HOP-62 NSCLC) of the same compound?
A: 29.7 µM

Q: And the GI50 (HOP-92 NSCLC)?
A: 10.7 µM

Q: What about the TGI (HOP-92 NSCLC) of the same compound?
A: 30.3 µM

Q: What about the GI50 (HS 578T breast) of the same compound?
A: 3.13 µM

Q: And the TGI (HS 578T breast)?
A: 16.6 µM

Q: What about the GI50 (HT29 colon) of the same compound?
A: 14.1 µM

Q: What about the TGI (HT29 colon) of the same compound?
A: 41.3 µM

Q: And the GI50 (IGROV1 ovarian)?
A: 1.78 µM

Q: And the TGI (IGROV1 ovarian)?
A: 3.62 µM

Q: What about the GI50 (K-562 leukemia) of the same compound?
A: 2.36 µM

Q: What about the TGI (K-562 leukemia) of the same compound?
A: > 100 µM

Q: And the GI50 (KM12 colon)?
A: 13.5 µM

Q: What about the TGI (KM12 colon) of the same compound?
A: 30.5 µM

Q: What about the GI50 (LOX IMVI melanoma) of the same compound?
A: 1.67 µM

Q: And the TGI (LOX IMVI melanoma)?
A: 3.17 µM

Q: And the GI50 (M14 melanoma)?
A: 1.52 µM

Q: What about the TGI (M14 melanoma) of the same compound?
A: 4.16 µM

Q: And the GI50 (MALME-3M melanoma)?
A: 12.6 µM

Q: And the TGI (MALME-3M melanoma)?
A: 25.5 µM

Q: And the GI50 (MCF7 breast)?
A: 5.12 µM

Q: And the TGI (MCF7 breast)?
A: 19.8 µM

Q: What about the GI50 (MDA-MB-231 breast) of the same compound?
A: 3.33 µM

Q: What about the TGI (MDA-MB-231 breast) of the same compound?
A: 12.6 µM

Q: And the GI50 (MDA-MB-435)?
A: 3.26 µM

Q: And the TGI (MDA-MB-435)?
A: 14.6 µM

Q: And the GI50 (MDA-MB-468 breast)?
A: 1.78 µM

Q: And the TGI (MDA-MB-468 breast)?
A: 3.77 µM

Q: What about the GI50 (MOLT-4 leukemia) of the same compound?
A: 3.3 µM

Q: And the TGI (MOLT-4 leukemia)?
A: > 100 µM

Q: And the GI50 (NCI-H226 lung)?
A: 15.5 µM

Q: What about the TGI (NCI-H226 lung) of the same compound?
A: 32.3 µM

Q: What about the GI50 (NCI-H23 lung) of the same compound?
A: 2.19 µM

Q: What about the TGI (NCI-H23 lung) of the same compound?
A: 4.91 µM

Q: And the GI50 (NCI-H460 lung)?
A: 2.69 µM

Q: What about the TGI (NCI-H460 lung) of the same compound?
A: 8.19 µM

Q: What about the GI50 (NCI-H522 lung) of the same compound?
A: 3.28 µM

Q: And the TGI (NCI-H522 lung)?
A: 15.3 µM

Q: What about the GI50 (NCI/ADR-RES ovarian) of the same compound?
A: 15.3 µM

Q: What about the TGI (NCI/ADR-RES ovarian) of the same compound?
A: 33.7 µM

Q: And the GI50 (OVCAR-3 ovarian)?
A: 2.32 µM

Q: What about the TGI (OVCAR-3 ovarian) of the same compound?
A: 7.05 µM

Q: And the GI50 (OVCAR-4 ovarian)?
A: 12 µM

Q: And the TGI (OVCAR-4 ovarian)?
A: 26.7 µM

Q: And the GI50 (OVCAR-5 ovarian)?
A: 16 µM

Q: What about the TGI (OVCAR-5 ovarian) of the same compound?
A: 32.4 µM

Q: What about the GI50 (OVCAR-8 ovarian) of the same compound?
A: 11.4 µM

Q: And the TGI (OVCAR-8 ovarian)?
A: 26.6 µM

Q: What about the GI50 (PC-3 prostate) of the same compound?
A: 5.56 µM

Q: What about the TGI (PC-3 prostate) of the same compound?
A: 20.8 µM

Q: And the GI50 (RPMI-8226 leukemia)?
A: 15.4 µM

Q: What about the TGI (RPMI-8226 leukemia) of the same compound?
A: 78.6 µM

Q: And the GI50 (RXF 393 renal)?
A: 7.9 µM

Q: What about the TGI (RXF 393 renal) of the same compound?
A: 22.4 µM

Q: What about the GI50 (SF-268 CNS) of the same compound?
A: 2.47 µM

Q: And the TGI (SF-268 CNS)?
A: 9.37 µM

Q: And the GI50 (SF-295 CNS)?
A: 16.8 µM

Q: And the TGI (SF-295 CNS)?
A: 32.5 µM

Q: What about the GI50 (SF-539 CNS) of the same compound?
A: 13.8 µM

Q: What about the TGI (SF-539 CNS) of the same compound?
A: 26.7 µM

Q: What about the GI50 (SK-MEL-2 melanoma) of the same compound?
A: 9.95 µM

Q: And the TGI (SK-MEL-2 melanoma)?
A: 22.5 µM

Q: What about the GI50 (SK-MEL-28 melanoma) of the same compound?
A: 4.6 µM

Q: What about the TGI (SK-MEL-28 melanoma) of the same compound?
A: 16.1 µM

Q: What about the GI50 (SK-MEL-5 melanoma) of the same compound?
A: 3.9 µM

Q: What about the TGI (SK-MEL-5 melanoma) of the same compound?
A: 14.1 µM

Q: What about the GI50 (SK-OV-3 ovarian) of the same compound?
A: 17.1 µM

Q: And the TGI (SK-OV-3 ovarian)?
A: 32.3 µM

Q: What about the GI50 (SN12C renal) of the same compound?
A: 9.21 µM

Q: And the TGI (SN12C renal)?
A: 21.5 µM

Q: What about the GI50 (SNB-19 CNS) of the same compound?
A: 11.8 µM

Q: What about the TGI (SNB-19 CNS) of the same compound?
A: 24.1 µM

Q: What about the GI50 (SNB-75 CNS) of the same compound?
A: 1.78 µM

Q: And the TGI (SNB-75 CNS)?
A: 7.27 µM

Q: And the GI50 (SR leukemia)?
A: 3.61 µM

Q: What about the TGI (SR leukemia) of the same compound?
A: > 100 µM

Q: And the GI50 (SW-620 colon)?
A: 3.86 µM

Q: What about the TGI (SW-620 colon) of the same compound?
A: 16.7 µM

Q: And the GI50 (T-47D breast)?
A: 13.4 µM

Q: What about the TGI (T-47D breast) of the same compound?
A: 61.6 µM

Q: And the GI50 (TK-10 renal)?
A: 18.9 µM

Q: What about the TGI (TK-10 renal) of the same compound?
A: 46.9 µM

Q: And the GI50 (U251 CNS)?
A: 15 µM

Q: And the TGI (U251 CNS)?
A: 28.9 µM

Q: What about the GI50 (UACC-257 melanoma) of the same compound?
A: 8.49 µM

Q: And the TGI (UACC-257 melanoma)?
A: 21.7 µM

Q: And the GI50 (UACC-62 melanoma)?
A: 8.1 µM

Q: And the TGI (UACC-62 melanoma)?
A: 20.6 µM

Q: And the GI50 (UO-31 renal)?
A: 8.66 µM

Q: What about the TGI (UO-31 renal) of the same compound?
A: 24.1 µM
